Measurements as given in patent US4691018A, “Pyridine derivatives and their use as anti-allergic agents” (Chugai Seiyaku Kabushiki Kaisha, priority 1985, dated 1987).

Key:
IgE antibody = experiment: Inhibitory effect on production of IgE antibody, oral, X-ray exposed mice immunized with DNP-KLH; type: in vivo, mouse (SJL/J strain); conditions: mouse
Description: Inhibitory effect on production of IgE antibody SJL/J strain mice (8-week-old) were exposed to X-rays of 400 R, and concurrently injected intraperitoneally a mixture of 1 μg of Keyhole Limpet Hemocyanin (KLH) with 4 mg of an aluminum hydroxide gel. One week later, the mice were intraperitoneally administered with a mixture of 1 μg of dinitrophenyl group-binding KLH (DNP-KLH) with 4 mg of an aluminum hydroxide gel. From the next day of the immunization with DNP-KLH, each of the mice was forced to be orally administered by using gastric catherter with a test compound suspended in a 1% gum arabic aqueous solution. The mice in a control group were administered with only the gum arabic solution.
The serum was sampled from each of the mice treated above, and the amount of IgE therein was measured by the "Rat 48-hour PCA test" similarly as described in Experiment 1. The amount of IgE was expressed in terms of the maximum dilution of the serum by which a cutaneous reaction appeared in an area with a diameter of 5 mm or more to be observed.
The percent inhibition was indicated as the ratio of the amount of IgE of the test group to that of the control group.
In Table 2, inhibition efficiencies of 25-50%, 50-75% and 75% or more are represented by ratings ++, +++ and ++++, respectively. The numbers given to the test compounds correspond to the Example Nos.

[1] = system: passive cutaneous anaphylaxis (PCA); experiment: Inhibitory effect on passive cutaneous anaphylaxis (PCA), oral; type: in vivo, rat (SD/JCL strain); conditions: rat
Description: Rat antiserum to egg albumin was prepared by the method of I. Mota, "Immunology" 7, 681-699 (1964), and 400 folds diluted. The diluted antiserum (0.1 ml) was injected into dorsal skin of rats (SD/JCL strain, male, 9-week-old) to subject them to passive immunization.
Forty-eight to seventy-two hours later, each rat was orally given a compound of this invention suspended in a 1% gum arabic aqueous solution. Five minutes after the administration, each rat was intravenously injected at its tail with 1 ml of a mixture containing equal volumes of a 0.5% solution of egg albumin in saline and 0.5% solution of Evans Blue in saline. Thirty minutes later, each rat was beheaded and the extravasated dye was quantitatively measured by the method of Katayama et al., "Microbiol. Immunol" 22, 89-101 (1978).
The percent inhibition was calculated by comparing the amount of Evans Blue leaking in the test groups with that in the control group in which a gum arabic aqueous solution containing no test compound was administered to the test animal.
In Table 1, inhibition efficiencies of 30 to 50%, 51-70%, 71-90% and 91% or more are represented by the ratings +, ++, +++ and ++++, respectively. The numbers given to the test compounds correspond to the Example Nos.

Row | Structure (SMILES) | Percent Inhibition (IgE antibody; dose 5 mg/kg) | Percent Inhibition ([1]; dose 10 mg/kg) | further results
1 | CCOC(=O)c1cc(C(=O)NC)nc(C(=O)NC)c1 [Compound 1, ethyl 2,6-bis(N-methylcarbamoyl)pyridine-4-carboxylate] | ++++ (75% or more) |  | Percent Inhibition ([1]; dose 5 mg/kg): ++++ (91% or more)
2 | CNC(=O)c1cc(C(=O)O)cc(C(=O)NC)n1 [Compound 2, 2,6-bis(N-methylcarbamoyl)pyridine-4-carboxylic acid] |  |  | Percent Inhibition (IgE antibody; dose 50 mg/kg): ++++ (75% or more); Percent Inhibition ([1]; dose 50 mg/kg): + (30 to 50%)
3 | CCCOC(=O)c1cc(C(=O)NC)nc(C(=O)NC)c1 [Compound 4] |  | ++ (51-70%) | 
4 | CNC(=O)c1cc(C(=O)OC(C)C)cc(C(=O)NC)n1 [Compound 5] | +++ (50-75%) |  | 
5 | CNC(=O)c1cc(C(=O)OCCOC)cc(C(=O)NC)n1 [Compound 7] |  | ++ (51-70%) | 
6 | CNC(=O)c1cc(C(=O)OCCO)cc(C(=O)NC)n1 [Compound 8, 2-hydroxyethyl 2,6-bis(N-methylcarbamoyl)pyridine-4-carboxylate] | ++ (25-50%) | ++ (51-70%) | 
7 | CCOC(=O)c1cc(C(=O)NC)nc(C(=O)NC)c1N [Compound 10, ethyl 3-amino-2,6-bis(N-methylcarbamoyl)pyridine-4-carboxylate] |  | +++ (71-90%) | Percent Inhibition (IgE antibody; dose 10 mg/kg): ++++ (75% or more)
8 | CCOC(=O)c1cc(C(=O)NC)nc(C(=O)NC)c1NC [Compound 11, ethyl 3-methylamino-2,6-bis(N-methylcarbamoyl)pyridine-4-carboxylate] | ++++ (75% or more) | ++++ (91% or more) | 
